Assay results reported in patent US20140120180A1, “METAL COMPOUNDS MIXED OR SULPHATED, AS PHOSPHATE BINDERS” (CYTOCHROMA DEVELOPMENT INC., priority 1997, published 2014).
“And” between values parts separate entries of the source, which are not always exact repeats. Identical values can stand only once.

What was measured:
[1] = Phosphate binding capacity, 3.2 mmol compound in 25 ml 20 mmol l^-1 phosphate buffer (Example 1)
Procedure: In Table 1, the values indicate respective percentage phosphate binding capacity at each of pH3, pH7 and pH8, n indicating the number of trials made for each compound.
The phosphate binding capacity was measured by mixing 3.2 mmol of the compound with 25 ml of 20 mmol l^−1 phosphate buffer for 30 min at 25° C. For all compounds except CT2000, which compounds were dry powders, the compounds were merely weighed and dosed. For CT2000, the slurry was dosed in an amount such as to give an equivalent of 1 g of a powder dried to constant weight at 40° C. Sodium phosphate and sodium hydrogen phosphate were mixed to provide respective phosphate solutions at pH3, 7 and 8 (HCl being added to provide pH3). […] The results are shown in Table 1, in which n refers to the number of observations and the values as the % of phosphate precipitated out of solution, calculated as follows:
where • x=mmol phosphate in solution after precipitation; and • y=mmol phosphate in solution without precipitation.

[2] = Measurement of phosphate binding M4: 1 g in 25 ml 40 mmol l^-1 phosphate buffer, pH 3-8 (Examples 3 and 4)
[3] = Body weight and faecal hydration of rats fed binder in diet; conditions: rat, in vivo
Procedure: Total faecal samples from each animal were mixed to ensure a homogeneity and duplicate one gram aliquots weighed. The percentage hydration of the stool was calculated following freeze drying to constant weight.
Following feeding with the modified diets for 7 days, animals were transferred to metabowls for collection of total 24 hour faecal and urine excretion.

[4] = rat, in vivo
[5] = Urine and faecal phosphate excretion in rats fed binder in diet; conditions: rat, in vivo
[6] = Phosphate binding capacity Method 2: as Method 1 but 20 mmol l^-1 phosphate buffer, increasing weight of compound
[7] = Phosphate binding in food, Method 3 (food slurry in 0.01 M HCl)
[8] = 3.2 mmol compound, 25 ml 20 mmol l^-1 phosphate buffer, 30 min, 25° C.

Compound	percentage phosphate binding capacity, pH 3 [1]	percentage phosphate binding capacity, pH 7 [1]	percentage phosphate binding capacity, pH 8 [1]	increase in phosphate binding at pH 3 compared to pH 8 [2]	Percentage phosphate binding at pH 3 ([2]; pH 3)	Percentage phosphate binding at pH 5 ([2]; pH 5)	Percentage phosphate binding at pH 7 ([2]; pH 7)	Percentage phosphate binding at pH 8 ([2]; pH 8)	mean weight gain [3]	Serum aluminium [4]	Serum calcium [4]	Serum iron [4]	Urine aluminium [4]	Total faecal phosphate [5]	Urine phosphate [5]	faecal hydration compared to the controls [3]	also measured
O=C([O-])[O-].[Ca+2] [CaCO3, calcium carbonate]	15.3 ± 0.5%	9.7 ± 1.8%	2.4 ± 1.8%	5.9 fold	69% and 72%	63% and 70%	30% and 43%	8% and 16%	38-53 grams	0.33 ± 0.05 µmol/L	2.93 ± 0.09 (n = 4)β mmol l^−1	41.9 ± 10.8 (n = 4) mmol l^−1	0.50 ± 0.21 µg	213 ± 16 μmol g^−1 dry weight faeces	857 ± 25 µmol		
O.O.O=S(=O)([O-])[O-].[Ca+2] [CaSO4•2H2O, Calcium Sulphate Dihydrate]																	Percentage phosphate bound at pH 3 ([2]; pH 3): 0%; Percentage phosphate bound at pH 5 ([2]; pH 5): 0%; Percentage phosphate bound at pH 7 ([2]; pH 7): 57%; Percentage phosphate bound at pH 8 ([2]; pH 8): 89%
[Ce+3].[OH-].[OH-].[OH-] [Ce(OH)3]																	percentage phosphate binding capacity, pH 3 [1, 8]: 69.8 ± 7.5%; percentage phosphate binding capacity, pH 7 [1, 8]: 57.8 ± 8.9%; percentage phosphate binding capacity, pH 8 [1, 8]: 60.5 ± 1.5%
[Mg+2].[OH-].[OH-] [Mg(OH)2, magnesium hydroxide]	61.1 ± 7.5%	45.7 ± 5.9%	12.5 ± 3.7%	3.7 fold	81% and 87%	82% and 80%	54% and 58%	17% and 28%	38-53 grams	0.35 ± 0.08 µmol/L	2.58 ± 0.05 (n = 3) mmol l^−1	29.4 ± 7.9 (n = 3) mmol l^−1	0.17 ± 0.07 µg	183 ± 17 μmol g^−1 dry weight faeces	65 ± 53 µmol	none of the animal groups treated with Mg(OH)2, CT 100 or CTFeMg showed an increase in faecal hydration compared to the controls	phosphate binding at pH 3, comparison [6]: best phosphate binder; phosphate binding in food, comparison [7]: not the best when used in food; urinary magnesium excretion, comparison between groups [4]: significantly higher than the control group or animals treated with any other binder
Al2Mg6(OH)16CO3.4H2O [CT100]									38-53 grams							none of the animal groups treated with Mg(OH)2, CT 100 or CTFeMg showed an increase in faecal hydration compared to the controls	
